What is called residual activity is the signal under treatment as a percentage of the control signal.

These results are taken from ChEMBL document CHEMBL1144604, “Synthesis and biological evaluation of phosphonate derivatives as autotaxin (ATX) inhibitors” (Bioorg Med Chem Lett, 2007).

For assay [1], the target named is Autotaxin (Homo sapiens) (UniProt Q13822). Put plainly: Inhibition of human recombinant ATX at 10 uM after 16 hrs; values are per cent of control.
Assay [2] shares this target. The experiment in a line: Inhibition of human recombinant ATX at 100 uM after 16 hrs; values are per cent of control.
Assay [3] shares this target. The experiment in a line: Inhibition of human recombinant ATX at 1 uM after 16 hrs; values are per cent of control.

With `CCCCCCCCCC(=O)N[C@H](Cc1ccc(OCc2ncc(C)c(OC)c2C)cc1)C(O)CP(=O)(O)O` (some centres undefined), the residual activity in assay [1] came out at 86%; in assay [2] it was 30%.
On to `CCCCCCCCCCCCCCCC(=O)N[C@@H](Cc1ccc(OC)cc1)C(=O)CP(=O)(O)O`, for which the residual activity came out at 96% in assay [3], 68% in assay [1] and 45% in assay [2].
For `CCCCCCCCCCCCCCCC(=O)N[C@@H](Cc1ccc(OCCC(C)C)cc1)C(=O)CP(=O)(O)O` the same measures were 104%, 104% and 85%.
Regarding `CCCCCCCCCCCCCCCC(=O)N[C@@H](Cc1ccc(OCCC)cc1)C(=O)CP(=O)(O)O`, the residual activity is 97% in assay [1] and 72% in assay [2].
On to `CCCCCCCCCCCCCCCC(=O)N[C@@H](Cc1ccc(OCCCCC)cc1)C(=O)CP(=O)(O)O`, for which the figures for the residual activity in assay [3] and in assay [1] were 95% and 83%, respectively.
On to `CCCCCCCCCCCCCCCC(=O)N[C@@H](Cc1ccc(OCc2cc(OCC(F)(F)F)ccn2)cc1)C(=O)CP(=O)(O)O`, for which the residual activity in assay [3] is 79%; in assay [1], 68%; in assay [2], 44%.
As to `CCCCCCCCCCCCCCCC(=O)N[C@@H](Cc1ccc(OCc2ccccc2)cc1)C(=O)CP(=O)(O)O`, the residual activity was 71% in assay [1] and 61% in assay [2].
As for `CCCCCCCCCCCCCCCC(=O)N[C@@H](Cc1ccc(OCc2ccccn2)cc1)C(=O)CP(=O)(O)O`, the residual activity was found to be 102% in assay [3], 72% in assay [1] and 50% in assay [2].
On the same counts, the results for `CCCCCCCCCCCCCCCC(=O)N[C@H](Cc1ccc(OC)cc1)C(=O)CP(=O)(O)O` are 84%, 71% and 32%.
On the same counts, the results for `CCCCCCCCCCCCCCCC(=O)N[C@H](Cc1ccc(OCCC(C)C)cc1)C(=O)CP(=O)(O)O` are 97%, 101% and 76%.
On the same counts, the results for `CCCCCCCCCCCCCCCC(=O)N[C@H](Cc1ccc(OCCC)cc1)C(=O)CP(=O)(O)O` are 104%, 97% and 75%.
With `CCCCCCCCCCCCCCCC(=O)N[C@H](Cc1ccc(OCCCCC)cc1)C(=O)CP(=O)(O)O`, the residual activity in assay [3] amounted to 93%; in assay [1], 84%.
`CCCCCCCCCCCCCCCC(=O)N[C@H](Cc1ccc(OCc2cc(OCC(F)(F)F)ccn2)cc1)C(=O)CP(=O)(O)O`: the residual activity in assay [3] is 85%; in assay [1] it was 70%; in assay [2] it was 57%.
Take `CCCCCCCCCCCCCCCC(=O)N[C@H](Cc1ccc(OCc2ccccc2)cc1)C(=O)CP(=O)(O)O`: the values for the residual activity in assay [1] and in assay [2] were 82% and 76%, respectively.
`CCCCCCCCCCCCCCCC(=O)N[C@H](Cc1ccc(OCc2ccccn2)cc1)C(=O)CP(=O)(O)O`: the residual activity in assay [3] worked out at 78%; in assay [1] it was 68%; in assay [2] it was 52%.
On to `CCCCCCCCCCCCCCCC(=O)N[C@H](Cc1ccc(OCc2ncc(C)c(OC)c2C)cc1)C(=O)CP(=O)(O)O`, for which the residual activity in assay [3] stood at 71%; in assay [1], 74%; in assay [2], 26%.
For `CCCCCCCCCCCCCCCC(=O)N[C@H](Cc1ccc(OCC2CCCCC2)cc1)C(O)CP(=O)(O)O` (single isomer, unassigned) the same measures were 84%, 80% and 67%.
`CCCCCCCC/C=C/CCCCCCCC(=O)N[C@@H](Cc1ccc(OCc2ncc(C)c(OC)c2C)cc1)C(O)CP(=O)(O)O` (single isomer, unassigned; diastereomer a): the residual activity in assay [1] came to 45%; in assay [2] it was 15%.
On the same counts, the results for `CCCCCCCCCCCCCC(=O)N[C@H](Cc1ccc(OCc2ncc(C)c(OC)c2C)cc1)C(O)CP(=O)(O)O` (single isomer, unassigned; diastereomer a) are 99% and 67%.
`CCCCCCCCCCCCCCCC(=O)N[C@@H](Cc1ccc(OC)cc1)C(O)CP(=O)(O)O` (single isomer, unassigned; diastereomer a): the residual activity came out at 77% in assay [3], 56% in assay [1] and 36% in assay [2].
On the same counts, the results for `CCCCCCCCCCCCCCCC(=O)N[C@@H](Cc1ccc(OCCC)cc1)C(O)CP(=O)(O)O` (single isomer, unassigned; diastereomer a) are 110%, 97% and 77%.
For `CCCCCCCCCCCCCCCC(=O)N[C@@H](Cc1ccc(OCCCCC)cc1)C(O)CP(=O)(O)O` (single isomer, unassigned; diastereomer a) the same measures were 98%, 83% and 67%.
On the same counts, the results for `CCCCCCCCCCCCCCCC(=O)N[C@H](Cc1ccc(OCCC(C)C)cc1)C(O)CP(=O)(O)O` (single isomer, unassigned; diastereomer a) are 103%, 104% and 72%.
As for `CCCCCCCCCCCCCCCC(=O)N[C@H](Cc1ccc(OCCCCC)cc1)C(O)CP(=O)(O)O` (single isomer, unassigned; diastereomer a), the residual activity in assay [3] worked out at 81%; in assay [1] it was 85%; in assay [2], 80%.
For `CCCCCCCCCCCCCCCC(=O)N[C@H](Cc1ccc(OCc2cc(OCC(F)(F)F)ccn2)cc1)C(O)CP(=O)(O)O` (single isomer, unassigned; diastereomer a) the same measures were 92%, 84% and 55%.
On the same counts, the results for `CCCCCCCCCCCCCCCCCCCC(=O)N[C@@H](Cc1ccc(OCc2ncc(C)c(OC)c2C)cc1)C(O)CP(=O)(O)O` (single isomer, unassigned; diastereomer a) are 64%, 45% and 10%.
Regarding `CCCCCCCCCCCCCCCC(=O)N[C@@H](Cc1ccc(OCc2ccccn2)cc1)C(O)CP(=O)(O)O` (single isomer, unassigned; diastereomer b), the residual activity stood at 74% in assay [1] and 65% in assay [2].
Regarding `CCCCCCCCCCCCCCCC(=O)N[C@H](Cc1ccc(OCCC(C)C)cc1)C(O)CP(=O)(O)O` (single isomer, unassigned; diastereomer b), the residual activity in assay [1] came to 104%; in assay [2], 94%.
For `CCCCCCCCCCCCCCCC(=O)N[C@H](Cc1ccc(OCc2cc(OCC(F)(F)F)ccn2)cc1)C(O)CP(=O)(O)O` (single isomer, unassigned; diastereomer b) the same measures were 84% and 64%.
Consider `CCCCCCCCCCCCCCCCCC(=O)N[C@@H](Cc1ccc(OCc2ncc(C)c(OC)c2C)cc1)C(O)CP(=O)(O)O` (single isomer, unassigned; diastereomer b), for which the residual activity in assay [1] was determined as 90%; in assay [2], 62%.
As for `CCCCCCCCCCCCCC(=O)N[C@H](Cc1ccc(OCc2ncc(C)c(OC)c2C)cc1)C(O)CP(=O)(O)O` (stereo in doubt; f38), the residual activity in assay [2] is 35%.
